Assays:
human Kv1.5 = target: T1, human Kv1.5 (Homo sapiens, UniProt P22460); test: Kv1.5 Rb+ Efflux Assay; format: cell-based; settings: inhibition of 86Rb+ efflux through Kv1.5; cells stably transfected with human Kv1.5; 10 point concentration response curves n=2; normalised to 2.5mM 4 amino-pyridine block
T1 construct: expressed in transfected cells
Procedure: The pore of a potassium channel is permeable to other monovalent cations such as Rb^+ and Tl^+. Analysis of cellular efflux of potassium channel permeable ions enables potassium channel activity to be monitored directly. Cells stably transfected with cDNA for human Kv1.5 (in pEF6::VA-His-TOPO) were grown in Dulbecco's Modified Eagle media (DMEM) alpha supplemented with 10% Fetal Calf Serum (FCS), 20 µl/ml penicillin (5000U/ml) streptomycin (5000µg/ml), 10µl/ml [100x] glutamine, and blasticidin (7.5µg/ml). Cells were dispensed into 96 well cellstar TC plates and allowed to grow until a confluent monolayer was visible. On the morning of the assay run, cold media was aspirated using the TECAN plate washer, and a 50µl media spike containing 2µCi/ml (37kBq/ml) ^86Rb^+ added to each well containing cells using the Shallow-Well Matrix Platemate. Plates were placed in a incubator at 37°C for a minimum of 3 hours. Unloaded ^86Rb^+ in the "hot" media was aspirated and each well washed 4x250µl with Earls Balanced Salt Solution (EBSS) which contained 5mM KCl, 140mM NaCl, 2mM CaCl2, 1mM MgSO4, 10mM HEPES, and 5mM glucose, pH 7.4, 290-300 mOsm. These cells were then pre-incubated with 50µl of EBSS +/- test compounds for 10 minutes at room temperature. After the 10 minute incubation, 50µl of modified EBSS which contained 145mM KCl, 2mM CaCl2, 1mM MgSO4, 10mM HEPES, 5mM glucose, pH 7.4, 290-300 mOsm, was added, and the cells were incubated for a further 10 minutes at room temperature. The high KCl EBSS was used to depolarise cells to a membrane potential that would activate Kv1.5 channels. After the final incubation 80µl/100µl of the reaction from each well was transferred to equivalent wells in a Packard "Optiplate" white 96 well plate and counted in a Packard TopCount liquid scintillation counter by Cerenkov emission. Percentage inhibition ^86Rb^+ efflux through Kv1.5 was calculated by normalisation to 2.5mM 4 amino-pyridine control block of Kv1.5. Alternatively cells were loaded with ^85Rb^+ and quantified by atomic absorption spectroscopy. IC50 determinations were derived from 10 point concentration response curves n=2 using the method described above. Data was fitted as variable slope sigmoidal fit using Graphpad Prism (V3.02) software.

hKv1.5 = hKv1.5 (Homo sapiens, UniProt P22460); test: Kv1.5 Autopatch Electrophysiology (whole cell patch-clamp); format: cell-based; settings: compound at 1µM, room temperature (22-24°C), held at -80mV, step to 0mV for 1000ms, total charge measured
Procedure: The external bathing solution contained (in mM): 150 NaCl, 10 KCl, […], 3 MgCl2, 1 CaCl2, 10 HEPES, pH 7.4. Patch pipettes were filled with an electrode solution of composition (in mM): 160 KCl, 0.5 MgCl2, 10 HEPES, 1 EGTA, pH 7.4 with KOH.
Compounds were dissolved in DMSO (100 %) and made up in the external bather at a concentration of 1µM. All experiments were conducted at room temperature (22-24°C).
A cell suspension (10 ml), with a density of 100,000 cells/ml, was aliquoted into a 15ml centrifuge tube and transferred to an incubator (37°C, 5% CO2) for approximately one hour before use. Following 60 min incubation, a tube was taken and centrifuged at 1000 rpm for 4 mins at room temperature. 9.5 ml supernatant was thence discarded, leaving a cell pellet at the bottom of the tube. The pellet was then resuspended using 100 µl of cold (4 °C), filtered (0.22 µm), 0.2 % BSA/bather solution (0.02g BSA/10ml bather). The bottom of the tube was manually agitated gently until the solution became cloudy with cells. The 100 µl cell resuspension solution was then stored on the bench at 4 °C (using a Peltier-based temperature control device) until used.
A length of capillary glass (1B150F-4, WPI) was dipped into the cell suspension solution, such that - 3 cm column of fluid was taken up by capillary action. A Ag/AgCl wire was dropped into the non-dipped end of the capillary also. The outside of the solution-filled end of the capillary was then dried and the capillary was loaded into the AutoPatch™. Borosilicate glass patch pipettes (from 1.5mm OD, thin-walled filamented, GC150-TF capillary glass, Harvard) were pulled using a DMZ pipette puller (Zeitz Instruments), and were back-filled using the internal pipette solution, being careful that no bubbles remain at the tip or in the body of the pipette. Patch pipettes typically had resistances of 2.3-3.5 MΩ. Once filled, the pipette tip and a proportion of the shaft (- 15 mm) were dipped into Sigmacote (Sigma). The recording pipette was then loaded into the AutoPatch™.
Automated patch-clamping was initiated by the operator, but thereafter AutoPatch.exe continued the experiment providing that pre-set conditions and criteria were satisfied.
Whole cell patch-clamp recordings were made using the AutoPatch™ rig, which incorporated an EPC9 amplifier (HEKA, Germany) under control of Pulse software (v8.54, HEKA, Germany), a motion controller with 2 translators (Newport, UK), valve controller (VF1) and a c-level suction device all at room temperature (22-24°C). This equipment was completely under the control of AutoPatch.exe and operator intervention was only made when there was a requirement to refill the drug reservoirs or to prevent the loss of a cell due to a technical error. Cells with an Rseries greater than 18 MΩ were discounted from the experiment.
Qualification stages prior to perfusion and drug application ensured that the observed current met the criteria for the experiment. Only those cells with an IK > 500 pA were used for experiments. Cells were continuously perfused with external solution at a flow rate of 1.8-2 ml/minute. […] Online analysis of the hKv1.5 current during the application of compounds was performed by the AutoPatch™ software. Voltage-step protocols and analysis of data was performed as described for conventional electrophysiology.
Electrophysiology voltage-step protocols and analysis of data was performed as follows. Data was sampled at 5kHz, and filtered with a -3 dB bandwidth of 2.5kHz. Cells were held at a voltage of -80mV. Currents were evoked to a voltage step for 1000ms in duration at 0mV every 5s. Currents were analysed using Pulsefit software (v8.54, HEKA, Germany), with the total charge measured during the whole of the voltage step. All other plots were produced using Igor Pro (WaveMetrics).

Chain of hKv1.5 (P22460 whole entry): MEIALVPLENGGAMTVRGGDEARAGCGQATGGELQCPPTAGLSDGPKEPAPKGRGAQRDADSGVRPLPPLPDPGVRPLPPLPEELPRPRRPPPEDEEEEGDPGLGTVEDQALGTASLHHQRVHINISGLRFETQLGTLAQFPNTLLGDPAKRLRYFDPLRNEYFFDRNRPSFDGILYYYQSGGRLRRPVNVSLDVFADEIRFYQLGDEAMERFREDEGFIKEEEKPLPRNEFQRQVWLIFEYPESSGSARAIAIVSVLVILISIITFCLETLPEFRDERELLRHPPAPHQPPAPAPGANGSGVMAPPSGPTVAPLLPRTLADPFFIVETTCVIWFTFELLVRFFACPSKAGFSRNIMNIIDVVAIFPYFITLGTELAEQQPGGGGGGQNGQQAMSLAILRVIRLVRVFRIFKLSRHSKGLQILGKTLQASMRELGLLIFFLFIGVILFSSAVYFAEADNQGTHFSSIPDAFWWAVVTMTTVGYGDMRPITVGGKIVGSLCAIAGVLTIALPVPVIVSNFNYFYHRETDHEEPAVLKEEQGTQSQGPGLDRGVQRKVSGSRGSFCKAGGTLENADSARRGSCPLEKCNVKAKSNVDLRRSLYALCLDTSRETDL
T1 sequence (P22460 whole entry): as above

SMILES | IC50 (human Kv1.5) | inhibition at 1 µM (hKv1.5) | % Inhibition at 1µM (hKv1.5)
c1ccc(-c2csc3ncnc(NCc4ccco4)c23)cc1 [Example 83, Furan-2-ylmethyl-(5-phenyl-thieno[2,3-d]pyrimidin-4-yl)-amine] | 0.07 µM | 21.9% | 
c1ccc(-c2csc3ncnc(NCC4CC4)c23)cc1 [Example 84, Cyclopropylmethyl-(5-phenyl-thieno[2,3-d]pyrimidin-4-yl)-amine] | 0.8 µM | 15.3% | 
c1ccc(-c2csc3ncnc(NCc4cccs4)c23)cc1 [Example 85, (5-Phenyl-thieno[2,3-d]pyrimidin-4-yl)-thiophen-2-ylmethyl-amine] | 4.21 µM | 24.2% | 
c1ccc(CNc2ncnc3scc(-c4ccccc4)c23)cc1 [Example 86, Benzyl-(5-phenyl-thieno[2,3-d]pyrimidin-4-yl)-amine] | 4.36 µM | 46% | 
C=CCNc1ncnc2scc(-c3ccccc3)c12 [Example 87, Allyl-(5-phenyl-thieno[2,3-d]pyrimidin-4-yl)-amine] | 5.14 µM | 3.4% | 
CN(Cc1ccco1)c1ncnc2scc(-c3ccccc3)c12 [Example 88, Furan-2-ylmethyl-methyl-(5-phenyl-thieno[2,3-d]pyrimidin-4-yl)-amine] | 6.82 µM | 26.4% | 
c1ccc(-c2csc3ncnc(NCC4CCCCC4)c23)cc1 [Example 89, Cyclohexylmethyl-(5-phenyl-thieno[2,3-d]pyrimidin-4-yl)-amine] | 8.1 µM |  | 42.2%
c1ccc(CCNc2ncnc3scc(-c4ccccc4)c23)cc1 [Example 90, Phenethyl-(5-phenyl-thieno[2,3-d]pyrimidin-4-yl)-amine] | 10.1 µM |  | 
c1ccc(-c2csc3ncnc(NC4CCCCC4)c23)cc1 [Example 91, Cyclohexyl-(5-phenyl-thieno[2,3-d]pyrimidin-4-yl)-amine] | > 30 µM |  | 
c1coc(CNc2ncnc3scc(-c4cccs4)c23)c1 [Example 92, Furan-2-ylmethyl-(5-thiophen-2-yl-thieno[2,3-d]pyrimidin-4-yl)-amine] | 1.91 µM | 27.6% | 
O=[N+]([O-])c1ccc(CNc2ncnc3scc(-c4cccs4)c23)cc1 [Example 93, (4-Nitro-benzyl)-(5-thiophen-2-yl-thieno[2,3-d]pyrimidin-4-yl)-amine] | > 30 µM | 44% | 
COc1cc(CNc2ncnc3scc(-c4cccs4)c23)cc(OC)c1OC [Example 94, (5-Thiophen-2-yl-thieno[2,3-d]pyrimidin-4-yl)-(3,4,5-trimethoxy-benzyl)-amine] | > 30 µM | 19.4% | 
c1csc(-c2csc3ncnc(NCC4CC4)c23)c1 [Example 95, Cyclopropylmethyl-(5-thiophen-2-yl-thieno[2,3-d]pyrimidin-4-yl)-amine] | 4.51 µM | 32.6% | 
CC(C)CNc1ncnc2scc(-c3cccs3)c12 [Example 96, Isobutyl-(5-thiophen-2-yl-thieno[2,3-d]pyrimidin-4-yl)-amine] | 6.32 µM | 22.9% | 
c1ccc(CNc2ncnc3scc(-c4cccs4)c23)cc1 [Example 97, Benzyl-(5-thiophen-2-yl-thieno[2,3-d]pyrimidin-4-yl)-amine] | 6.53 µM | 43.3% | 
c1csc(CNc2ncnc3scc(-c4cccs4)c23)c1 [Example 98, Thiophen-2-ylmethyl-(5-thiophen-2-yl-thieno[2,3-d]pyrimidin-4-yl)-amine] | 6.95 µM |  | 21.0%
C=CCNc1ncnc2scc(-c3cccs3)c12 [Example 99, Allyl-(5-thiophen-2-yl-thieno[2,3-d]pyrimidin-4-yl)-amine] | 7.53 µM | 17.5% | 
CN(Cc1ccco1)c1ncnc2scc(-c3cccs3)c12 [Example 100, Furan-2-ylmethyl-methyl-(5-thiophen-2-yl-thieno[2,3-d]pyrimidin-4-yl)-amine] | 9.71 µM | 19.9% | 
CCN1CCCC1CNc1ncnc2scc(-c3ccccc3)c12 (stereo not shown) [Example 102, (1-Ethyl-pyrrolidin-2-ylmethyl)-(5-phenyl-thieno[2,3-d]pyrimidin-4-yl)-amine] | > 30 µM |  | 
c1ccc(-c2csc3ncnc(NCCCn4ccnc4)c23)cc1 [Example 104, (3-Imidazol-1-yl-propyl)-(5-phenyl-thieno[2,3-d]pyrimidin-4-yl)-amine] | > 30 µM |  | 
COCCNc1ncnc2scc(-c3ccccc3)c12 [Example 113, (2-Methoxy-ethyl)-(5-phenyl-thieno[2,3-d]pyrimidin-4-yl)-amine] | 5.27 µM |  | 
c1ccc(-c2csc3ncnc(NCC4CCCO4)c23)cc1 (stereo not shown) [Example 114, (5-Phenyl-thieno[2,3-d]pyrimidin-4-yl)-(tetrahydro-furan-2-ylmethyl)-amine] | 5.18 µM |  | 
c1ccc(-c2csc3ncnc(NCC4OCCO4)c23)cc1 [Example 116, [1,3]Dioxolan-2-ylmethyl-(5-phenyl-thieno[2,3-d]pyrimidin-4-yl)-amine] | 6.16 µM |  | 
Fc1ccc(-c2csc3ncnc(NCc4ccccn4)c23)cc1 [Example 123, [5-(4-Fluoro-phenyl)-thieno[2,3-d]pyrimidin-4-yl]-pyridin-2-ylmethyl-amine] | 0.05 µM |  | 
Fc1ccc(-c2csc3ncnc(NCc4ccco4)c23)cc1 [Example 124, [5-(4-Fluoro-phenyl)-thieno[2,3-d]pyrimidin-4-yl]-furan-2-ylmethyl-amine] | 1.16 µM |  | 
Cc1csc2ncnc(NCCc3ccc(Cl)cc3)c12 [Example 125, [2-(4-Chloro-phenyl)-ethyl]-(5-methyl-thieno[2,3-d]pyrimidin-4-yl)-amine] | 6.91 µM |  | 
Cc1ccc(-c2csc3ncnc(NCCc4ccccc4)c23)cc1 [Example 130, Phenethyl-(5-p-tolyl-thieno[2,3-d]pyrimidin-4-yl)-amine] | 8.05 µM |  | 

— patent EP1641803B1, “THIENOPYRIMIDINE DERIVATIVES AS POTASSIUM CHANNEL INHIBITORS” (Xention Limited, priority 2003, dated 2004)
